How the values were obtained:
[1] = Local tolerance and dermal toxicity test, Draize scoring; details: after the 7th DNCB dose (third week), 0.05% in 95% ethanol
[2] = Encapsulation efficiency and drug loading by HPLC after ultrafiltration; format: physicochemical; details: Z-Endoxifen in transethosomes
Protocol: After cooling the transethosomes to room temperature, the remaining volume was 10 ml. The total drug concentration was determined by HPLC using 20 μL demulsified samples. 200 μL samples were collected into a 30 kDa ultrafiltration tube, added 1 mL of 25% ethanol, ultrafiltrated at 5000 rpm, and the drug concentration of subnatant was determined by HPLC.
Encapsulation efficiency was evaluated by HPLC. HPLC was performed using a WondaSil® C-18-WR column (4.6×150 mm, 5 μm pore size). The mobile phase included an A phase and a B phase at a ratio (A:B) of 30:70. The A phase contained 10 mM ammonium formate in water: 10 mM ammonium formate in methanol. The B phase contained 10 mM ammonium formate in methanol at a ratio of 40:60. Samples were prepared as follows. The solvent was prepared by mixing 10 mM ammonium formate in a solution containing water and acetonitrile at a ratio of 1:1 (v/v). Z-Endoxifen was diluted in the solvent at a concentration gradient of 5, 10, 25, 50, and 80 μg/mL. Samples were injected into the column at a volume of 20 μL and were passed through the column at a flow rate of 0.8 mL/min at a temperate of 30° C. The detection wavelength was 243 nm.
The following equations were used in Table 1: […]

Structure (SMILES)	Erythema score (Draize) ([1]; 3 of 10 animals)	Erythema score (Draize) ([1]; remaining 7 animals)	Drug loading (%) [2] [%]	Encapsulation efficiency (%) [2] [%]
O=[N+]([O-])c1ccc(Cl)c([N+](=O)[O-])c1 [DNCB, 1-chloro-2,4-dinitrobenzene]	2	1		
CC/C(=C(\c1ccc(O)cc1)c1ccc(OCCNC)cc1)c1ccccc1 [Z-Endoxifen, (Z)-endoxifen]			4.77	92.34
